Assay results published in paper PMC9369311, “Examination of Intracellular GPCR-Mediated Signaling with High Temporal Resolution” (International Journal of Molecular Sciences, 2022).
Several values for one entry are separate records, joined by “and”; a condition that tells them apart may be missing. Equal values may be shown once. Read-outs that look alike come from different tables or passages of the source.

Molecular target: T1, DmOctα1B receptor (Drosophila melanogaster, UniProt Q7JQF1)
T1 construct: expressed in transfected cells
T1 sequence (Q7JQF1 1-645): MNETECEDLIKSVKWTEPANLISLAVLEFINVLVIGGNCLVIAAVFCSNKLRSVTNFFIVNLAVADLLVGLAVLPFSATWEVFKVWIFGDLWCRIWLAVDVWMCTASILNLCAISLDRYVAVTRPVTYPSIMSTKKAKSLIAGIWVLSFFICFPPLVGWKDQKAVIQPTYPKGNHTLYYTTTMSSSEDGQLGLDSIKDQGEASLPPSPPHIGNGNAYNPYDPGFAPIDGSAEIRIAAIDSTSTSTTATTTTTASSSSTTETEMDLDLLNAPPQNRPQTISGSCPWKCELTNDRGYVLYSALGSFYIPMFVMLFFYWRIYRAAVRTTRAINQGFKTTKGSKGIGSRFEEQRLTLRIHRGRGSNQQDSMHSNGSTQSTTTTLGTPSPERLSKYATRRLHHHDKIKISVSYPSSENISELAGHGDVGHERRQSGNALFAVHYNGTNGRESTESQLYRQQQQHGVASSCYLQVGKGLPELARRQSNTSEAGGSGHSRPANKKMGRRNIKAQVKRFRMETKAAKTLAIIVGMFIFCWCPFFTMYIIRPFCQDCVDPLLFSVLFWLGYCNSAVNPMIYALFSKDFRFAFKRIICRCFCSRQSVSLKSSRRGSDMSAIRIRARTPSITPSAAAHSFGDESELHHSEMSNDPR
Assay: Ca2+ fluorimetry in plate reader (96 MWP), DmOctα1B-expressing HEK293 cells
Format: cell-based
Description: Both the DmOctα1B receptor- and DmOctβ1 receptor-expressing (=flpTM-DmOctβ1) cell lines were initially investigated via Ca^2+ fluorimetric measurements in a plate reader. The cells were seeded in 96 well plates and loaded with Fluo-4, enabling the detection of changes in [Ca^2+]i. The Fluo-4 was excited at 485 nm and the fluorescence emission was recorded at 510 nm. To overcome the cAMP degradation by cell-endogenous phosphodiesterases, the DmOctβ1-expressing cells were treated with 100 µM iso-butylmethylxanthine (IBMX). Prior to the ligand application, the basal fluorescence (F0) was recorded and the concentration–response curves were generated by plotting the changes in fluorescence ((Fmax − F0)/F0 = ΔF/F0) against the ligand concentrations. For a better comparison, the fluorescence intensities were normalized. The maximal change in fluorescence for each of the stimulation series was defined as 100%. The EC50 values were determined from a nonlinear regression plot (four parameters) using GraphPad Prism v5.04 for analysis and display.
In order to omit loading with the fluorescent dye, both the DmOctα1B-expressing cells and flpTM-DmOctβ1 cells were stably transfected with a construct encoding the cytosolic version of GCaMP3.0. As in the previous experiment with Fluo-4, the GCaMP3.0-expressing cell lines were seeded in 96 well plates and incubated with the same series of increasing octopamine concentrations. The GCaMP3.0 was excited at 485 nm and the fluorescence emission was recorded at 510 nm. The basal fluorescence (F0) was recorded before adding the octopamine concentration series. The fluorescence intensities were normalized to the maximal change in fluorescence, defined as 100%. The concentration–response curves were generated with GraphPad Prism v5.04. In Figure 1, the concentration–response curves obtained with Fluo-4 and GCaMP3.0 are depicted for both of the receptors. […]

NCC(O)c1ccc(O)cc1 (stereo not drawn) [octopamine]
EC50 (DmOctα1B cells loaded with Fluo-4, 96 MWP plate reader, read-out: EC50): ~0.012 µM and 0.012 µM
EC50 (DmOctα1B-GCaMP3.0 cells, 96 MWP plate reader, read-out: EC50): 0.014 µM
EC50 (DmOctα1B-GCaMP3.0 cells, 96 MWP, given as logEC50 (negative), read-out: logEC50 ± SD (converted)): 0.0158 µM
